# In patent publication US5411740A (ALZA Corporation, priority 1994, dated 1995):
# Read-outs that look alike come from different tables or passages of the source.
# Experiments:
# clinical [1] = conditions: human, in vivo, topical or ocular; for concentration at 24 h: after 24 hours; for concentration at 12 h: after 12 hours
# Experimental: (§1) Addition time was approximately 45 minutes.
# No in-line adhesive was present. […] There was a 3M acrylate in-line adhesive present.
# The in vivo plasma levels of oxybutynin were measured for two body sites. A 10 cm^2 device was worn on the penis for 101/2 hours and two 10 cm^2 devices were worn on the inner thigh for 24 hours. A control sample was drawn before applying the systems.
# The other subject achieved a plasma level of 0.7 ng/mL after 12 hours, and the plasma level was 0.8 ng/mL after 24 hours.
# [2] = format: in vivo, human
# Experimental: as §1
# clinical [3] = format: in vivo, human; conditions: system worn for 24 hours
# Experimental: Therapeutic blood levels from about 0.5 ng/ml to about 3.0 ng/ml can be obtained from administration rates in the range of 0.08 mg/hr to 0.5 mg/hr. […] Therapeutic blood levels can be achieved within approximately 1-5 hours, and peak blood concentrations are achieved at about 3 hours when the system is worn for 24 hours. […] The system application is easily adapted for shorter or longer duration treatments, but generally 24 hours is the nominal duration for treatment.
# [4] = 25 mg/ml oxybutynin reservoir, 20 μm polybutadiene film, cited from earlier work
# [5] = plasma oxybutynin concentration, two 10 cm^2 systems on inner thigh
# [6] = plasma oxybutynin level, additional subject (the other), two 10 cm^2 systems on inner thigh
smiles,measurement,setting,value
"CCN(CC)CC#CCOC(=O)C(O)(c1ccccc1)C1CCCCC1 (stereo not shown) [oxybutynin, 4-diethylamino-2-butynylphenylcyclohexylglycolate]",concentration at 9 h,"clinical [1]; plasma oxybutynin concentration, additional subject (one), two 10 cm^2 systems on inner thigh, after 9 hours",2 ng/mL
same,concentration at 24 h,"clinical [1]; plasma oxybutynin concentration, additional subject (one), two 10 cm^2 systems on inner thigh",1.7 ng/mL
same,concentration at 12 h,clinical [1]; [5],0.9 ng/mL
same,concentration at 24 h,clinical [1]; [5],1.1 ng/mL
same,concentration at 4 h,"clinical [1]; plasma oxybutynin level, 10 cm^2 device on the penis, within 4 hours",2 ng/mL
same,concentration at 12 h,clinical [1]; [6],0.7 ng/mL
same,concentration at 24 h,clinical [1]; [6],0.8 ng/mL
same,Measured Drug Loss,"[2]; subject 1, inner thigh",5.8 mg/20 cm^2 /day
same,Measured Drug Loss,"[2]; subject 2, inner thigh",8.6 mg/20 cm^2 /day
same,Measured Drug Loss,"[2]; subject 3, chest",6.7 mg/20 cm^2 /day
same,Measured Drug Loss,"[2]; subject 4, abdomen",7.2 mg/20 cm^2 /day
same,Measured Drug Loss,"[2]; subject 5, penis",19.2 mg/20 cm^2 /day
same,Tmax,"clinical [3]; human, in vivo, topical or ocular, read-out: time of peak blood concentrations",~3 h
same,time to achieve therapeutic blood levels,clinical [3],1 to 5 h
same,in vitro release rate,[4]; 49 cm^2 area,~10 μg/cm^2 /hr
same,in vitro release over 24 hours,[4]; over 24 hours through a 49 cm^2 area,approximately 12 mg
